Data from patent US10752640B2, “Compounds active towards bromodomains” (NUEVOLUTION A/S, priority 2014, dated 2020).

Biological target: BRD4 protein (Homo sapiens, UniProt O60885)
Test: FRET assay, half maximal inhibitory concentration (IC50)
Format: binding
Settings: BRD4 protein 50 nM, Biotin-H4KAc4 peptide 12.5 nM; List of Classification
Procedure: The compounds were biologically evaluated by determining the half maximal inhibitory concentration (IC50) by FRET assay. The IC50 is a measure of the effectiveness of a substance in inhibiting a specific biological or biochemical function.
For IC50 determinations, dose-response curves were generated, using a top concentration of 50 μM compound in 12.5% DMSO, followed by 10-fold dilutions in 12.5% DMSO. The composition of the reaction buffer was 50 mM HEPES, pH 7.5; 100 mM NaCl, 0.05% CHAPS.
The reaction was run in a final volume of 25 μl. The BRD4 protein (16.5 μl) was added to wells of 384w white Optiplates (Perkin Elmer) (50 nM final concentration) and 1 μl of compound dilution of DMSO control. Incubation time was 30 minutes at room temperature. In the next step, 2.5 μl Biotin-H4KAc4 peptide (Millipore 13-379) was added to the wells (final concentration was 12.5 nM), and the plates were incubated for 30 minutes at room temperature. Detection was performed by addition of 5 μl of a mix of mAb GST-XL665 (Cisbio 61GSTXLB) (10 nM final concentration) and Streptavidin Cryptate (Cisbio 610SAKLB) (2.4 nM final conc.) in reaction buffer with 0.4M KF and 0.05% BSA). The plates were incubated for one hour prior to reading on an Envision reader (Perkin Elmer)
Data was analyzed using GraphPad Prism, and IC50 data was obtained using non-linear regression curve fit using log(inhibitor) vs response (variable slope). All compounds were considered active although classified (according to the half maximal inhibitory concentration (IC50) by FRET assay) as follows: […]

With `Cc1cc(O)nc2ccc(NC(=O)c3nc(C#N)ccc3N3CCCC3)cc12` [Compound-35, 6-Cyano-N-(2-hydroxy-4-methylquinolin-6-yl)-3-(pyrrolidin-1-yl)picolinamide] as the molecule, how does the IC50 read?
Its IC50 is 500 to 1000 nM.

Which IC50 does the source give for `Cc1cc(O)nc2ccc(NC(=O)c3nc(CN)ccc3N3CCCC3)cc12` [Compound-36, 6-(aminomethyl)-N-(2-hydroxy-4-methylqunolin-6-yl)-3-(pyrrolidin-1-yl)picolinamide] here?
Its IC50 is 1000 to 10000 nM.

Which IC50 does the source give for `Cc1cc(O)nc2ccc(NC(=O)c3nc(CN(C)C)ccc3N3CCCC3)cc12` [Compound-37] here?
Its IC50 is 1000 to 10000 nM.

`CC(=O)c1ccc(N2CCCC2)c(C(=O)Nc2ccc3nc(O)cc(C)c3c2)n1` [Compound-38, 6-acetyl-N-(2-hydroxy-4-methylquinolin-6-yl)-3(pyrrolidin-1-yl)picolinamide] was tested. Which IC50 did it give?
Its IC50 is under 200 nM.

With `Cc1cc(O)nc2ccc(NC(=O)c3nc(C(C)O)ccc3N3CCCC3)cc12` (stereo not drawn) [Compound-39] as the molecule, how does the IC50 read?
The IC50 was 500 to 1000 nM.

`Cc1cc(O)nc2ccc(NC(=O)c3nc(C(N)=O)ccc3N3CCCC3)cc12` [Compound-40, N2-(2-hydroxy-4-methylquinolin-6-yl)-3-(pyrrolidin-1-yl)pyridine-2,6-dicarboxamide] was tested. Which IC50 did it give?
Its IC50 is 200 to 500 nM.

With `Cc1cc(O)nc2ccc(NC(=O)c3cc(C#N)ncc3N3CCCC3)cc12` [Compound-41, 2-Cyano-N-(2-hydroxy-4-methylquinolin-6-yl)-5-(pyrrolidin-1-yl) isonicotinamide] as the molecule, how does the IC50 read?
The IC50 was under 200 nM.

For `CC(=O)c1cc(C(=O)Nc2ccc3nc(O)cc(C)c3c2)c(N2CCCC2)cn1` [Compound-42, 2-acetyl-N-(2-hydroxy-4-methylquinolin-6-yl)-5 (pyrrolidin-1-yl)isonicotinamide], which IC50 is on record?
Its IC50 is under 200 nM.

How did the IC50 turn out when `Cc1cc(O)nc2ccc(NC(=O)c3cc(C(C)O)ccc3N3CCCC3)cc12` (stereo not drawn) [Compound-46, N-(2-hydroxy-4-methylquinolin-6-yl)-5-(1-hydroxyethyl)-2-(pyrrolidin-1-yl) benzamide] was run?
The IC50 was under 200 nM.

How did the IC50 turn out when `COC(C)c1ccc(N2CCCC2)c(C(=O)Nc2ccc3nc(O)cc(C)c3c2)c1` (stereo not drawn) [Compound-47, N-(2-hydroxy-4-methylquinolin-6-yl)-5-(1-methoxyethyl)-2-(pyrrolidin-1-yl) benzamide] was run?
The IC50 was under 200 nM.

With `COCc1ccc(N2CCCC2CN(C)C)c(C(=O)Nc2ccc3nc(O)cc(C)c3c2)c1` (stereo not drawn) [Compound-48, 2-(2-((dimethylamino)methyl)pyrrolidin-1-yl)-N-(2-hydroxy-4-methylquinolin-6-yl)-5-(methoxymethyl)benzamide] as the molecule, how does the IC50 read?
The IC50 was 200 to 500 nM.

For `Cc1cc(O)nc2ccc(NC(=O)c3cc(COC(C)C)ccc3N3CCCC3)cc12` [Compound-50, N-(2-hydroxy-4-methylquinolin-6-yl)-5-(isopropoxymethyl)-2-(pyrrolidin-1-yl) benzamide], which IC50 is on record?
Its IC50 is under 200 nM.

For `Cc1cc(O)nc2ccc(NC(=O)c3cc(OC(F)(F)F)ccc3N3CCCC3CN(C)C)cc12` (stereo not drawn) [Compound-51, 2-(2-((dimethylamino)methyl)pyrrolidin-1-yl)-N-(2-hydroxy-4-methylquinolin-6-yl)-5-(trifluoromethoxy) benzamide], which IC50 is on record?
The IC50 was under 200 nM.

Which IC50 does the source give for `Cc1cc(O)nc2ccc(NC(=O)c3cc(N)ccc3N3CCOCC3)cc12` [Compound-54, 5-amino-N-(2-hydroxy-4-methyl-6-quinolyl)-2-morpholino-benzamide] here?
Its IC50 is 500 to 1000 nM.

Which IC50 does the source give for `Cc1cc(O)nc2ccc(NC(=O)c3cc(NCC(N)=O)ccc3N3CCOCC3)cc12` [Compound-55, 5-[(2-amino-2-oxo-ethyl)amino]-N-(2-hydroxy-4-methyl-6-quinolyl)-2-morpholino-benzamide] here?
Its IC50 is 200 to 500 nM.

`Cc1cc(O)nc2ccc(NC(=O)c3cc(S(=O)(=O)N4CCOCC4)ccc3N3CCOCC3)cc12` [Compound-68, N-(2-hydroxy-4-methyl-6-quinolyl)-2-morpholino-5-morpholinosulfonyl-benzamide] was tested. Which IC50 did it give?
Its IC50 is under 200 nM.

`COc1ccccc1C(=O)Nc1ccc2nc(O)cc(C)c2c1` [Compound-69, N-(2-hydroxy-4-methyl-6-quinolyl)-2-methoxy-benzamide] was tested. Which IC50 did it give?
The IC50 was over 10000 nM.

`Cc1cc(O)nc2ccc(NC(=O)c3cc(S(N)(=O)=O)ccc3N3CCOCC3)cc12` [Compound-70, N-(2-hydroxy-4-methyl-6-quinolyl)-2-morpholino-5-sulfamoyl-benzamide] was tested. Which IC50 did it give?
Its IC50 is under 200 nM.

`Cc1cc(O)nc2ccc(NC(=O)c3cc(S(=O)(=O)N(C)C)ccc3N3CCCC3)cc12` [Compound-72, 5-(dimethylsulfamoyl)-N-(2-hydroxy-4-methyl-6-quinolyl)-2-pyrrolidin-1-yl-benzamide] was tested. Which IC50 did it give?
The IC50 was under 200 nM.

`Cc1cc(O)nc2ccc(NC(=O)c3cc(S(=O)(=O)N(C)C)ccc3N3CCOCC3)cc12` [Compound-73, 5-(dimethylsulfamoyl)-N-(2-hydroxy-4-methyl-6-quinolyl)-2-morpholino-benzamide] was tested. Which IC50 did it give?
The IC50 was under 200 nM.

How did the IC50 turn out when `Cc1cc(O)nc2ccc(NC(=O)c3cc(S(=O)(=O)N4CCOCC4)ccc3N3CCCC3)cc12` [Compound-74, N-(2-hydroxy-4-methyl-6-quinolyl)-5-morpholinosulfonyl-2-pyrrolidin-1-yl-benzamide] was run?
The IC50 was under 200 nM.

With `Cc1cc(O)nc2ccc(NS(=O)(=O)c3cc([N+](=O)[O-])ccc3N3CCOCC3)cc12` [Compound-76, N-(2-hydroxy-4-methyl-6-quinolyl)-2-morpholino-5-nitro-benzenesulfonamide] as the molecule, how does the IC50 read?
Its IC50 is 1000 to 10000 nM.

With `Cc1cc(O)nc2ccc(NS(=O)(=O)c3cc(N)ccc3N3CCOCC3)cc12` [Compound-77, 5-amino-N-(2-hydroxy-4-methyl-6-quinolyl)-2-morpholino-benzenesulfonamide] as the molecule, how does the IC50 read?
Its IC50 is over 10000 nM.

`CN(C)S(=O)(=O)c1ccc(N2CCOCC2)c(C(=O)Nc2ccc3[nH]c(=O)cc(C(F)(F)F)c3c2)c1` [Compound-79, 5-(dimethylsulfamoyl)-2-morpholino-N-[2-oxo-4-(trifluoromethyl)-1H-quinolin-6-yl]benzamide] was tested. Which IC50 did it give?
The IC50 was 1000 to 10000 nM.

`Cc1cc(O)nc2ccc(NS(=O)(=O)c3cc(S(N)(=O)=O)ccc3N3CCOCC3)cc12` [Compound-80, N3-(2-hydroxy-4-methyl-6-quinolyl)-4-morpholino-benzene-1,3-disulfonamide] was tested. Which IC50 did it give?
Its IC50 is over 10000 nM.

With `Cc1cc(O)nc2ccc(NC(=O)c3cc([N+](=O)[O-])ccc3N3CCCC3)cc12` [Compound-82, N-(2-hydroxy-4-methyl-6-quinolyl)-5-nitro-2-pyrrolidin-1-yl-benzamide] as the molecule, how does the IC50 read?
Its IC50 is under 200 nM.

Which IC50 does the source give for `Cc1cc(O)nc2ccc(NC(=O)c3cc4c(ccn4CC4NCCO4)cc3N3CCCC3)cc12` (stereo not drawn) [Compound-84, N-(2-hydroxy-4-methyl-6-quinolyl)-1-(oxazolidin-2-ylmethyl)-5-pyrrolidin-1-yl-indole-6-carboxamide] here?
Its IC50 is under 200 nM.

`Cc1cc(O)nc2ccc(NC(=O)c3cc4[nH]cc(CN(C)C)c4cc3N3CCCC3)cc12` [Compound-85, 3-(dimethylaminomethyl)-N-(2-hydroxy-4-methyl-6-quinolyl)-5-pyrrolidin-1-yl-1H-indole-6-carboxamide] was tested. Which IC50 did it give?
The IC50 was under 200 nM.

Which IC50 does the source give for `Cc1cc(O)nc2ccc(NC(=O)c3cc4c(ccn4CC(N)=O)cc3N3CCCC3)cc12` [Compound-86, 1-(2-amino-2-oxo-ethyl)-N-(2-hydroxy-4-methyl-6-quinolyl)-5-pyrrolidin-1-yl-indole-6-carboxamide] here?
Its IC50 is under 200 nM.

With `Cc1cc(O)nc2ccc(NC(=O)c3cc(CN4CCOCC4)cnc3N3CCCC3)cc12` [Compound-87, N-(2-hydroxy-4-methyl-6-quinolyl)-5-(morpholinomethyl)-2-pyrrolidin-1-yl-pyridine-3-carboxamide] as the molecule, how does the IC50 read?
Its IC50 is under 200 nM.

For `Cc1cc(O)nc2ccc(NC(=O)c3cc(CN4CCOCC4)cnc3N3CCC(F)C3)cc12` (stereo not drawn) [Compound-88, 2-(3-fluoropyrrolidin-1-yl)-N-(2-hydroxy-4-methyl-6-quinolyl)-5-(morpholinomethyl)pyridine-3-carboxamide], which IC50 is on record?
Its IC50 is under 200 nM.

`Cc1cc(O)nc2ccc(NC(=O)c3cc(CN4CCOCC4)cnc3N3CCC(O)C3)cc12` (stereo not drawn) [Compound-89, N-(2-hydroxy-4-methyl-6-quinolyl)-2-(3-hydroxypyrrolidin-1-yl)-5-(morpholinomethyl)pyridine-3-carboxamide] was tested. Which IC50 did it give?
The IC50 was under 200 nM.

How did the IC50 turn out when `Cc1cc(O)nc2ccc(NC(=O)c3cc(CN4CCOCC4)cnc3N3CCOCC3)cc12` [Compound-90, N-(2-hydroxy-4-methyl-6-quinolyl)-2-morpholino-5-(morpholinomethyl)pyridine-3-carboxamide] was run?
Its IC50 is under 200 nM.

`O=C(Nc1ccc2nc(O)cc(Cl)c2c1)c1cc(CN2CCOCC2)cnc1N1CCOCC1` [Compound-91, N-(4-chloro-2-hydroxy-6-quinolyl)-2-morpholino-5-(morpholinomethyl)pyridine-3-carboxamide] was tested. Which IC50 did it give?
The IC50 was under 200 nM.

With `Cc1cc(=O)nc2ccc(NC(=O)c3cc(CN4CCOCC4)cnc3N3CCCC3)cn12` [Compound-92, N-(4-methyl-2-oxo-pyrido[1,2-a]pyrimidin-7-yl)-5-(morpholinomethyl)-2-pyrrolidin-1-yl-pyridine-3-carboxamide] as the molecule, how does the IC50 read?
Its IC50 is over 10000 nM.

`Cc1cc(O)nc2ccc(NC(=O)c3cc(CN4CCOCC4)cnc3N3CCCC3)nc12` [Compound-93, N-(8-methyl-6-oxo-5H-1,5-naphthyridin-2-yl)-5-(morpholinomethyl)-2-pyrrolidin-1-yl-pyridine-3-carboxamide] was tested. Which IC50 did it give?
The IC50 was 1000 to 10000 nM.
